# Results published in PMC10288505, “Photoswitchable Calixarene Activators for Controlled Peptide Transport across Lipid Membranes” (Journal of the American Chemical Society, 2023).
# Test system: R8
# Assay: Indicator displacement assay with host:LCG reporter pair, guest R8
# Assay type: binding
# Conditions: association constant, competitive dye displacement with LCG, 5 mM phosphate buffer pH 7.3; only the lower limit can be estimated
# Text: The binding affinity of the anionic calixarene activators toward cationic peptides was investigated using a small library of highly hydrophilic oligoarginines, from 3 to 8 residues. These peptides are not able to spontaneously transverse zwitterionic artificial membranes in vesicle assays, which allows the accurate evaluation of the calixarenes 1 and 2 as counterion activators without interferences from the transport of the peptide alone.[43]−[45] First, the formation of host–guest complexes between 1/2 and the selected peptides was verified by indicator displacement assays using lucigenin (LCG) as the fluorescent indicator.[46] As previously reported for other sulfonatocalixarene derivatives,[46] the formation of host–guest binding pairs between calixarenes 1/2 in the E- and Z-forms and LCG results in significant static fluorescence quenching (see Figure 2A and Figures S26 and S27). Quantitative analysis of the fluorescence titration data using a 1:1 host:guest binding model allows the determination of the respective binding constants (K) reported in Table 1. As can be observed, both 1/2 display high affinity for the LCG dye, on the 10^7 M^–1 range, which seems to be independent of the nature and conformation of the azobenzene arm. […] The host:LCG binding pairs were then employed in the above-mentioned indicator displacement assays to investigate the binding affinity of oligoarginines toward 1 and 2 (see Figure 2B and Figures S29–S33).
# The binding affinities of the counterion activators and peptide complexes were analyzed by indicator displacement assays. […] Firstly, the affinity for LCG was calculated for each of the activators, by titrations followed by fluorescence spectroscopy leading to almost full quenching of the emission. […]
# Figure S26 - Fluorescence titration of the lucigenin dye with increasing concentrations of A) E-1 and B) Z–1 in water (5 mM phosphate buffer pH 7.3). […]
row,Compound,Apparent affinity constant K for R8
1,O=S(=O)([O-])c1cc2c(O)c(c1)Cc1cc(S(=O)(=O)[O-])cc(c1O)Cc1cc(S(=O)(=O)[O-])cc(c1OCCCCCCOc1ccc(/N=N/c3ccccc3)cc1)Cc1cc(S(=O)(=O)[O-])cc(c1O)C2.[Li+].[Li+].[Li+].[Li+] [E-1],>5 × 10^8 ^a M^–1
2,CCCCc1ccc(/N=N/c2ccc(OCCCOc3c4cc(S(=O)(=O)[O-])cc3Cc3cc(S(=O)(=O)[O-])cc(c3O)Cc3cc(S(=O)(=O)[O-])cc(c3O)Cc3cc(S(=O)(=O)[O-])cc(c3O)C4)cc2)cc1.[Li+].[Li+].[Li+].[Li+] [E-2],>5 × 10^8 ^a M^–1
